Details of series [1]: method as in PMID 26352530. The following applies: cited from earlier work.
Series [2] deals with Caco-2 cells. Further details: method as in PMID 26352530. The following applies: cited from earlier work.
The target of series [3] is hERG (Homo sapiens, UniProt Q12809). The experiment in a line: hERG inhibition. The format is biochemical. The following applies: for inhibition at 25 µM: hERG (% inhibition at 25 μM). In general terms: The hERG channel carries a current that helps repolarise heart muscle cells.
Sequence of hERG (Q12809 whole entry): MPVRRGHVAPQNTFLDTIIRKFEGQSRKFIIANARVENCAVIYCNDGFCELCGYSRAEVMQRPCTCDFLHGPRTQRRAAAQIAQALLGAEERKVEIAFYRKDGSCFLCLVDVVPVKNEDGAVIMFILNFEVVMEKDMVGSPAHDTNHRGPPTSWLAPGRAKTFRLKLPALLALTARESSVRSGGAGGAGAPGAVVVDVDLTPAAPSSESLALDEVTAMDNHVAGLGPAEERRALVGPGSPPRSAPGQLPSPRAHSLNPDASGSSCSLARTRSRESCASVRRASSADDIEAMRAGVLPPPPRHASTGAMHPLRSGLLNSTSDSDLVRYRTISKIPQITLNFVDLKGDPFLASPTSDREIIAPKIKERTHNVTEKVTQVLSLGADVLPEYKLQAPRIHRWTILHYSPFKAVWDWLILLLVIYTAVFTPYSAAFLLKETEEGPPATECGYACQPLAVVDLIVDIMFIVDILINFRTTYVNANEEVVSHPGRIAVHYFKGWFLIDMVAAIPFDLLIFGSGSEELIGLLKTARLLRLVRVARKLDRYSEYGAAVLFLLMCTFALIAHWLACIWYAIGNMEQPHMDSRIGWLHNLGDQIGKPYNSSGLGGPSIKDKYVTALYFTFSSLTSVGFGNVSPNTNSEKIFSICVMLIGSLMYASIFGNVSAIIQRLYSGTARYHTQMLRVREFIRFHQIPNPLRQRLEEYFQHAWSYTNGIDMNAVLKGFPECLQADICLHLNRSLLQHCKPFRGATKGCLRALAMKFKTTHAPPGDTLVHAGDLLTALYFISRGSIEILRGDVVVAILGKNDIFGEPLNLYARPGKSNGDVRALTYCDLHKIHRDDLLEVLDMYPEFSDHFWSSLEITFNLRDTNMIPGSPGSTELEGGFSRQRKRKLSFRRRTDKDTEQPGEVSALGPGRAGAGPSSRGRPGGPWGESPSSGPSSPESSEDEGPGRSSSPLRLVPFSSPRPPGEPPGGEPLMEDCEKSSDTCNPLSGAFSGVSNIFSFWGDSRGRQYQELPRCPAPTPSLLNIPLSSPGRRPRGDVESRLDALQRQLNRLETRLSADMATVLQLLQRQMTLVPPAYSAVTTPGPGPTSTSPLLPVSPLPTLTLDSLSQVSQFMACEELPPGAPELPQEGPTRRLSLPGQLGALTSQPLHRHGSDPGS
Series [4] is described as follows: Hepatocyte clearance (human). The format is in vitro ADME. The following applies: human hepatocytes.
For series [5] the following is noted: mouse, in vivo; for AUC(0-inf) / AUC(0-t) / half-life: ip, 10 mg/kg.
Protocol: (§1) The remaining five compounds were evaluated for plasma and brain levels in a pharmacokinetic experiment in mice.
Pharmacokinetic analysis.
(Cyprotex UK) using LCMSMS.
Series [6] can be described thus: in vivo. The following applies: ABH, mouse, ip, 10 mg/kg; for level at 24 h: Brain concentrations at 24 hours.
Protocol: as §1
Pharmacokinetic analysis.
(Cyprotex UK) using LCMSMS.
For series [7] the following is noted: mouse, in vivo; for Cl_obs: ip.
Protocol: as §1
Pharmacokinetic analysis.
(Cyprotex UK) using LCMSMS.
For series [8], the target named is CypD (Homo sapiens, UniProt P30405). The experiment in a line: Fluorescence polarization cyclophilin D binding assay. The conditions noted are these: Table S7; focused SAR set; read-out: CypD Ki. For orientation: Polarisation of emitted light reports the rotation of a fluorescent probe.
Sequence of CypD (P30405 30-207): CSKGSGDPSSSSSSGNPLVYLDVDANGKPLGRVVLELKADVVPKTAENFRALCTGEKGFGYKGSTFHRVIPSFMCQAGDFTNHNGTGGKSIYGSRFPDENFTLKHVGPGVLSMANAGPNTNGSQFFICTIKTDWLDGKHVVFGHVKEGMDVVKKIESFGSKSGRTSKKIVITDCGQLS
Protocol: (§2) This was determined using a fluorescence polarization assay ([12]).
Fluorescence Polarization assay.
(§3) Briefly, titration of a single probe concentration
measure binding affinities.
Series [9] can be described thus: Hepatocyte clearance (mouse). The following applies: mouse hepatocytes. The format is in vitro ADME.
Series [10] is described as follows: Brain tissue binding (fraction unbound). The format is in vitro ADME. The following applies: read-out: Brain tissue (fu). From the text:
Table 1. Key data for lead optimization. SD, standard deviation of the mean; SE, standard error of the mean; fu, fraction unbound; ND, not determined. | column: Brain tissue (fu)

In series [11] the target is Cyclophilin A (CypA) (Homo sapiens, UniProt P62937). The experiment in a line: Fluorescence polarization cyclophilin A binding assay. The following applies: Table S7; focused SAR set; read-out: CypA Ki.
Sequence of Cyclophilin A (CypA) (P62937 whole entry): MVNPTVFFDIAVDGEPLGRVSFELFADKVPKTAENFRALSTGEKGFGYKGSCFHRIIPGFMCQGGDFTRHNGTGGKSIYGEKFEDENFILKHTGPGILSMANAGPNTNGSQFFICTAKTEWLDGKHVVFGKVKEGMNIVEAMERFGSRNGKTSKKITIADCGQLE
Protocol: as §2
Fluorescence Polarization assay.
as §3
measure binding affinities.
FP -probe. Enzyme, inhibitor and
(ph7.4)) supplemented with 1 mM PMSF.
A short description of series [12]: Plasma protein binding (fraction unbound). Type of series: in vitro ADME. The following applies: read-out: Plasma protein (fu).
Series [13] deals with mitochondrial permeability transition pore (mPTP). The experiment in a line: Calcium retention capacity (CRC) assay in isolated liver mitochondria. The format is biochemical, rat.
The target in series [14] is T1, TRIM-CypA (Homo sapiens, UniProt P62937+Q6PIZ9).
T1 construct: expressed in transfected cells; host or cells: CRFK (Crandell-Rees Feline Kidney) cells transduced with MLV EXN-TRIM-CypA vector, G418 selected
T1 sequence (P62937 2-165, one chain of several): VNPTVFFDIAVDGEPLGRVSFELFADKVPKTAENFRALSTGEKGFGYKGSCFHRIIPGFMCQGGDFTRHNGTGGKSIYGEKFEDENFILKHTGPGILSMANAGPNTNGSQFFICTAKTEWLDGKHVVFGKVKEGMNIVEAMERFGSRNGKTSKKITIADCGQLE
The format is cell-based. The conditions noted are these: CRFK-TRIMCypA cells; 0.5-20 μM; 48 hours; GFP-positive cells by flow cytometry.

Series [15] concerns CRFK and CRFK-TRIMCypA cells. The series can be described thus: MTT viability of CRFK and CRFK-TRIMCypA cells. The format is cell-based, Feline. The following applies: 48 hours, up to 20 μM.
Protocol: Assay for cellular CypA selectivity
bromide (MTT) assay (Sigma) was performed.
100 μL solubilisation solution (10 % SDS
The nature of series [16]: Pharmacokinetic study, plasma and brain levels by LC-MS/MS.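 Further: ABH mice, four per group, dosed intraperitoneally, plasma and brain taken at set times after euthanasia, drug levels quantified by LC-MS/MS.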
Protocol: as §1
Pharmacokinetic analysis.
(Cyprotex UK) using LCMSMS.

Results on five compounds are retold here after PMC11235165, “Delocalized quinolinium-macrocyclic peptides, an atypical chemotype for CNS penetration” (Science Advances, 2024).

Where two headings read alike, the source gives them in different places.

Turning to `COc1ccc2cc3[n+](cc2c1OC)CCc1cc2c(cc1-3)OCO2` [Berberine, berberine], the PAMPA permeability in [1] is 1 to 1.2 ×10⁻⁶ cm/s. The “Caco-2 cell line permeability AP-BL” value in series [2] (AP-BL) is 2.59 ×10⁻⁶ cm/s. For the same compound, the “Caco-2 cell line permeability BL-AP” value in series [2] (BL-AP) is 25.16 ×10⁻⁶ cm/s.
The inhibition is the share of the control response that was lost under treatment. Low values mean a weak effect, high ones a strong effect. A word on the hepatocyte CLint: it is the capacity of the preparation to metabolise the compound, expressed as a volume cleared per time. As usually defined, the AUC is the area under the concentration-time curve, a measure of exposure. What is called AUC(0-inf) is the area under the concentration-time curve extrapolated to infinity. As usually defined, the AUC(0-t) is exposure summed from dosing to a finite time, without extrapolation to infinity. A lower AUC(0-t) goes with less exposure. The term half-life denotes the time in which the quantity being followed falls by half. A lower half-life goes with fast loss. Usually Ki stands for a dissociation constant, usually derived from enzyme kinetics or from competition with a known ligand. The compound `CC[C@@H]1NC(=O)[C@H]([C@H](O)[C@H](C)C/C=C/CCC[n+]2ccc(N3CCOCC3)c3ccc(C(F)(F)F)cc32)N(C)C(=O)[C@H](C(C)C)N(C)C(=O)[C@H](CC(C)C)N(C)C(=O)[C@H](CC(C)C)N(C)C(=O)[C@@H](C)NC(=O)[C@H](C)NC(=O)[C@H](CC(C)C)N(C)C(=O)[C@H](C(C)C)NC(=O)[C@H](CC(C)C)N(C)C(=O)CN(C)C1=O` [JP1-138] had an inhibition at 25 µM in series [3] (25 μM) of 37.7%. In [4], this compound returned a hepatocyte CLint of 7.62 µL/min/1e6 cells. In series [5], this compound gave an AUC of 198 µg·h/mL, an AUC(0-inf) of 226 µg·h/mL, an AUC(0-t) of 216 µg·h/mL and a half-life of 5.81 h. In series [6], this compound yielded a level at time molar at 24 h of 391 nM and a level at 24 h of 592 ng/mL. In addition, the “Brain AUC as % of the plasma AUC” value in [7] is recorded as “about 2%”. Also, the Cl_obs in series [7] (10 mg/kg) is 4.43 × 10^−05 (mg/kg)/(ng/ml).hour. Moreover, the Ki in [8] was found to be 64 ± 16 nM. In series [9], this compound displayed a hepatocyte CLint of 9.61 µL/min/1e6 cells. The fraction unbound in series [10] amounted to 0.00084. The Ki in series [11] worked out at 42 nM.
For the compound `CC[C@@H]1NC(=O)[C@H]([C@H](O)[C@H](C)C/C=C/CCC[n+]2ccc(N3CCOCC3)c3ccccc32)N(C)C(=O)[C@H](C(C)C)N(C)C(=O)[C@H](CC(C)C)N(C)C(=O)[C@H](CC(C)C)N(C)C(=O)[C@@H](C)NC(=O)[C@H](C)NC(=O)[C@H](CC(C)C)N(C)C(=O)[C@H](C(C)C)NC(=O)[C@H](CC(C)C)N(C)C(=O)CN(C)C1=O` [JP1-141], in series [3] (25 μM), the “hERG (% inhibition at 25 μM)” value is on record as 63.9% and the inhibition at 25 µM is 65%. Further, the hepatocyte CLint in [4] was found to be 3.62 µL/min/1e6 cells. In series [5], the area under the curve AUC(0-inf) came out at 105 µg·h/mL, the AUC(0-t) stood at 103 µg·h/mL and the half-life was 4.04 h. Besides, in series [6], the level at time molar at 24 h is 642 nM and the level at 24 h is 927 ng/mL. In series [7] (10 mg/kg), the “Toxicity in the pharmacokinetic experiment” value is listed as “some toxicity” and the Cl_obs is on record as 9.57 × 10^−05 (mg/kg)/(ng/ml).hour. In addition, the hepatocyte CLint in series [9] is 3.59 µL/min/1e6 cells. For the same compound, in [10], the fraction unbound came out at 0.01. In addition, in series [11], the inhibition constant (Ki) came out at 29 nM.
`CC[C@@H]1NC(=O)[C@H]([C@H](O)[C@H](C)C/C=C/CCC[n+]2ccc(N3CCCCC3)c3ccc(C(F)(F)F)cc32)N(C)C(=O)[C@H](C(C)C)N(C)C(=O)[C@H](CC(C)C)N(C)C(=O)[C@H](CC(C)C)N(C)C(=O)[C@@H](C)NC(=O)[C@H](C)NC(=O)[C@H](CC(C)C)N(C)C(=O)[C@H](C(C)C)NC(=O)[C@H](CC(C)C)N(C)C(=O)CN(C)C1=O` [JP1-164] showed an inhibition at 25 µM in series [3] (25 μM) of 14.2%. Further, in series [12], the fraction unbound stood at 0.69. In addition, the hepatocyte CLint in series [4] came out at 22.4 µL/min/1e6 cells. For the same compound, in [5], the AUC(0-inf) is 141 µg·h/mL, the AUC(0-t) was 134 µg·h/mL and the half-life was 5.68 h. Besides, in series [6], the level at time molar at 24 h was found to be 380 nM and the level at 24 h turned out to be 574 ng/mL. The Cl_obs in series [7] (10 mg/kg) was 7.09 × 10^−05 (mg/kg)/(ng/ml).hour. The same compound had a hepatocyte CLint in series [9] of 5.89 µL/min/1e6 cells. For the same compound, in [10], the fraction unbound worked out at 0.01.
For `CC[C@@H]1NC(=O)[C@H]([C@H](O)[C@H](C)C/C=C/CCC[n+]2ccc(N(C)C)c3ccc(C(F)(F)F)cc32)N(C)C(=O)[C@H](C(C)C)N(C)C(=O)[C@H](CC(C)C)N(C)C(=O)[C@H](CC(C)C)N(C)C(=O)[C@@H](C)NC(=O)[C@H](C)NC(=O)[C@H](CC(C)C)N(C)C(=O)[C@H](C(C)C)NC(=O)[C@H](CC(C)C)N(C)C(=O)CN(C)C1=O` [JW76], the CRC inhibition % in [13] (Table S4 / Fig. S2, rat liver mitochondria, 500 nM, (Treated-NonTreated)/NonTreated)*100) stood at 54.7%. Besides, in series [13] (Table S7, 10 nM), the “CRC % inhibition at 10 nM” value turned out to be 32.9%. Moreover, the “Rescue of HIV-1 infectivity of restricting (TRIM-CypA) cells” value in series [14] was “rescued infectivity poorly and only at 20 μM”. For the same compound, the “hERG activity” value in series [3] is on record as “little hERG activity”. In addition, 25 µM produced 16.3% inhibition in series [3] (25 μM). Besides, the fraction unbound in series [12] was 0.0039. Besides, the results for the hepatocyte CLint in series [4] and in [9] were 5.62 µL/min/1e6 cells and 6.81 µL/min/1e6 cells, respectively. Moreover, the “Toxicity to non-restricting and restricting cells (MTT)” value in series [15] is “not toxic at any concentration tested”. Also, the level at 1 h was determined as 668 ng/mL in [16] (ABH, mouse, brain, ip, Brain ng/mL, mice, 1 h) and 50800 ng/mL in series [16] (ABH, mouse, plasma, ip, Plasma (ng/mL), mice, 1 h). The compound further registered a level at 4 h in series [16] (ABH, mouse, brain, ip, Brain ng/mL, mice, 4 h) of 545 ng/mL. For the same compound, in series [16] (longer-term pharmacokinetic study, 48 hours), the “Detectability in the brain at 48 hours” value is listed as “not detectable”. The “Brain” value in [16] (mice, 1 h) came to 668 ng/mL. Moreover, the AUC in series [16] (mouse, in vivo) came out at 67 µg·h/mL.
